# Paper PMC9899896, “Application of a new approach methodology (NAM)-based strategy for genotoxicity assessment of data-poor compounds” (Frontiers in Toxicology, 2023)
# Read-outs that look alike come from different tables or passages of the source.
# Assays:
# [1] = tested on: human lymphoblastoid TK6 cells; test: MultiFlow DNA Damage assay (γH2AX, p53, p-H3, polyploidy); format: cell-based; details: for MultiFlow summary classification (call and MoA): TK6 cells, 4H and 24H sampling; for MultiFlow MoA classification: GEF-based call, in at least one S9 condition; for MultiFlow biomarkers with responses: fold-increase over solvent control
# Experimental: Treated cells were gently resuspended and 25 µL/well was mixed thoroughly with the labeling solution. The plate was incubated for 30 min at room temperature shielded from light.
# The γH2AX and p53 endpoints were measured based on their median fluorescence intensity (i.e., mean channel fluorescence or MCF) relative to the DMSO solvent control. The p-H3 and polyploidy endpoints were measured based on their frequencies among all events (i.e., all 2n–4n and polyploidy (8n) DNA content). The equations for calculating γH2AX shift, nuclear p53 shift, % polyploidy, and % p-H3 positive events are shown below.
# Latex microspheres were used as counting beads to determine nuclear density.
# Litron developed Global Evaluation Factors (GEF) to identify a biologically significant increase in select biomarker levels.
# A clastogenic or aneugenic call required two successive concentrations that met or exceeded the GEFs in at least 2 of the 4 respective MoA biomarkers. Chemicals that met or exceeded two GEFs in a single non-cytotoxic concentration were designated as “weak” responses. In cases where both clastogen and aneugen biomarkers exceeded the GEF the MoA was considered pan-genotoxic. In cases where less than two biomarkers met the GEFs, the call was non-genotoxic.
# [2] = tested on: human lymphoblastoid TK6 cells; test: In vitro MicroFlow assay (flow cytometry-based micronucleus test); details: for MicroFlow summary classification (MN induction): TK6 cells, 4H exposure, 24-h sampling; for MicroFlow %MN response (text): positive: >2.5 fold-increase in %MN and p < 0.05 vs vehicle
# [3] = tested on: human lymphoblastoid TK6 cells; test: Viability assessment (propidium iodide fluorescence, flow cytometry); details: TK6 cells, ± S9, quantified at 24 h via propidium iodide
# [4] = tested on: human lymphoblastoid TK6 cells; test: TGx-DDI transcriptomic biomarker classification (TempO-Seq S1500+) and BMC modeling; details: for TGx-DDI summary classification: TK6 cells, 4H exposure; for TGx-DDI classification: overall call from 2-DC, PCA, NSC-PA, S9 condition as in Figure 1; for TGx-DDI BMC potency ranking (bootstrapped median gene BMC): BMR 1 standard deviation, compounds with concordant positive calls; for Strength / consistency of TGx-DDI response (text): across concentrations and the three statistical analyses
# [5] = tested on: human lymphoblastoid TK6 cells; test: Integrated NAM-based test strategy (TGx-DDI + MicroFlow + MultiFlow; ToxPi integration of BMCs); details: for ToxPi profile of multiplexed endpoint BMCs: six endpoints: TGx-DDI, MN, 4H/24H p53, 4H/24H ɣH2AX; for Integrated hazard conclusion: from TGx-DDI, MicroFlow and MultiFlow calls
# [6] = tested on: structural chromosomal aberrations; details: cited from earlier work; for In vitro mammalian chromosomal aberration test result (OECD 473): SCCS
# [7] = tested on: MN; details: cited from earlier work
# [8] = +S9 (rat liver S9), 3 h recovery
"TGx-DDI summary classification [4, 8]",TGx-DDI summary classification ([4]; -S9),TGx-DDI classification [4],Strength / consistency of TGx-DDI response (text) [4],SMILES,MultiFlow summary classification (call and MoA) ([1]; +S9),MultiFlow summary classification (call and MoA) ([1]; -S9),MicroFlow summary classification (MN induction) ([2]; -S9),MicroFlow %MN response (text) [2],MicroFlow summary classification (MN induction) ([2]; +S9),MultiFlow MoA classification [1],MultiFlow biomarkers with responses [1],Integrated hazard conclusion [5],also measured
+,,DDI,weaker DDI responses,"Cc1ccc(O)c(N)c1 [NSACB 2, 2-amino-4-methylphenol]",+ C,-,+,variable responses with a significant increase observed only at the highest concentration,+,clastogens,4H ɣH2AX and 24H p53,"genotoxic in vitro, causing DNA damage via a clastogenic MoA",Strength of MultiFlow biomarker response (text) [1]: most robust increases
+,,DDI,weaker DDI responses,"CCN(CC)c1cccc(O)c1 [NSACB 4, 3-diethylaminophenol]",+ C/A,+ C,,,,pan-genotoxicant,"clastogen biomarkers 4H p53 and 4H ɣH2AX, as well as aneugen marker 4H p-H3 and pan-genotoxic biomarker 24H p53","genotoxic in vitro, causing DNA damage via a clastogenic MoA",
+,,DDI across all concentrations,strongest responses,"Nc1cccc(N)n1 [NSACB 5, 2,6-diaminopyridine]",+ C,+ C,+,robust fold-increase in %MN with a clear concentration-response relationship,+,clastogens,4H p53 and 4H ɣH2AX,"genotoxic in vitro, causing DNA damage via a clastogenic MoA","Strength of MultiFlow biomarker response (text) ([1]; listed as 5): most robust increases; Strength of MultiFlow biomarker response (text) ([1]; listed as NSACB #5): strong response in clastogen-related biomarkers in both S9 conditions; Chromosomal aberration test result ([6]; continuous treatment (24H) without S9, ref SCCS, 2013): clastogenic; In vitro mammalian chromosomal aberration test result (OECD 473) ([6]; ref SCCP, 2007, 2013): positive; Chromosomal aberration test result ([6]; short-term (6H) treatment with S9, ref SCCS, 2013): clastogenic; TGx-DDI BMC potency ranking (bootstrapped median gene BMC) [4]: greatest median gene BMC; ToxPi profile of multiplexed endpoint BMCs [5]: almost no slices protruding from the center"
-,,non-DDI,,"COc1cc([N+](=O)[O-])ccc1O [NSACB 6, 2-methoxy-4-nitrophenol]",-,-,+,robust fold-increase in %MN with a clear concentration-response relationship,+,non-genotoxic,"moderate to robust response increase in one of the aneugenic biomarkers (i.e., 4H p-H3)",likely irrelevant positives in the MN test,
+,+,,moderate DDI response,"O=[N+]([O-])c1cc(O)ccc1NCCCO [NSACB 9, 4-[(3-hydroxypropyl)amino]-3-nitrophenol]",+ C,+ C,+,robust fold-increase in %MN with a clear concentration-response relationship,+,clastogens,4H and 24H ɣH2AX,"genotoxic in vitro, causing DNA damage via a clastogenic MoA","Strength of MultiFlow biomarker response (text) ([1]; listed as 9): most robust increases; Strength of MultiFlow biomarker response (text) ([1]; listed as NSACB #9): strong fold-increases in clastogenic biomarkers (i.e., 4H and 24H ɣH2AX) in both S9 conditions; Chromosomal aberration test result ([6]; in the presence of S9, ref SCCP, 2007): induced structural chromosomal aberrations; In vitro mammalian chromosomal aberration test result (OECD 473) ([6]; ref SCCP, 2007, 2013): positive; Chromosomal aberration test result ([6]; without S9, ref SCCP, 2007): equivocal"

# Second part, the compound before the results:
SMILES,"TGx-DDI summary classification [4, 8]",TGx-DDI summary classification ([4]; -S9),TGx-DDI classification [4],Strength / consistency of TGx-DDI response (text) [4],MultiFlow summary classification (call and MoA) ([1]; +S9),MultiFlow summary classification (call and MoA) ([1]; -S9),MicroFlow summary classification (MN induction) ([2]; -S9),MicroFlow %MN response (text) [2],MicroFlow summary classification (MN induction) ([2]; +S9),MultiFlow MoA classification [1],MultiFlow biomarkers with responses [1],Integrated hazard conclusion [5],also measured
"OC[C@@H](O)[C@@H](O)[C@H](O)[C@H](O)CO [DMANN, D-mannitol, reference compound]",-,-,non-DDI,,-,-,-,not observed,,,,,Effect on cell viability [3]: no decrease in viability
"COc1cc([C@@H]2c3cc4c(cc3[C@@H](O[C@@H]3O[C@@H]5CO[C@@H](C)O[C@H]5[C@H](O)[C@H]3O)[C@H]3COC(=O)[C@H]23)OCO4)cc(OC)c1O [EPEG, Etoposide, reference compound]",,+,DDI,,+ C,+ C,+,significant fold-increases in %MN,+,,,,TGx-DDI BMC potency ranking (bootstrapped median gene BMC) [4]: lowest median gene BMC; ToxPi profile of multiplexed endpoint BMCs [5]: most potent for five of the six endpoints examined
"Cc1cc(C)n(CO)n1 [NSACB 3, 3,5-dimethylpyrazole-1-methanol]",+,,DDI,weaker DDI responses,+ C,+ C,+,variable responses with a significant increase observed only at the highest concentration,+,clastogens,4H p53 and 4H ɣH2AX,"genotoxic in vitro, causing DNA damage via a clastogenic MoA",Strength of MultiFlow biomarker response (text) [1]: more moderate responses
"CCCOCC(C)OCC(C)O (stereo not drawn) [NSACB 10, 1-(1-methyl-2-propoxyethoxy)-2-propanol]",,,,,,,,,,,,likely irrelevant positives in the MN test,Effect on cell viability [3]: did not impact viability up to the highest concentration of 10 mM
C/C=C(/C)C(=O)O[C@H]1C(C)=C2[C@H]([C@@H]1OC(=O)CCCCCCC)[C@@](C)(OC(C)=O)C[C@H](OC(=O)CCC)[C@@]1(O)[C@H]2OC(=O)[C@@]1(C)O [thapsigargin],,,,,,,,,,,,,MicroFlow MN result [7]: induce MN
